Assay results taken from publication PMC11240139, “Exploring the antitumor potential of novel quinoline derivatives via tubulin polymerization inhibition in breast cancer; design, synthesis and molecular docking” (RSC Advances, 2024).

Legend:
MOLT-4 (leukemia) = assay: NCI-60 SRB cytotoxicity screen; format: cell-based; conditions: Homo sapiens; MOLT-4, single dose 10 μM; read-out: growth inhibition (GI%)
RPMI-8226 (leukemia) = assay: NCI-60 SRB cytotoxicity screen; format: cell-based; conditions: Homo sapiens; RPMI-8226, single dose 10 μM; read-out: growth inhibition (GI%)
SR (leukemia) = assay: NCI-60 SRB cytotoxicity screen; format: cell-based; conditions: single dose 10 μM, read-out: growth inhibition (GI%)
[1] = test system: EKVX (non-small cell lung cancer); assay: NCI-60 SRB cytotoxicity screen; format: cell-based; conditions: Homo sapiens, single dose 10 μM, read-out: growth inhibition (GI%)
[2] = test system: HOP-92 (non-small cell lung cancer); assay: NCI-60 SRB cytotoxicity screen; format: cell-based; conditions: Homo sapiens; HOP-92, single dose 10 μM; read-out: growth inhibition (GI%)
[3] = test system: NCI-H226 (non-small cell lung cancer); assay: NCI-60 SRB cytotoxicity screen; format: cell-based; conditions: Homo sapiens; NCI-H226, single dose 10 μM; read-out: growth inhibition (GI%)
COLO 205 (colon cancer) = assay: NCI-60 SRB cytotoxicity screen; format: cell-based; conditions: Homo sapiens; COLO 205, single dose 10 μM; read-out: growth inhibition (GI%)
HCC-2998 (colon cancer) = assay: NCI-60 SRB cytotoxicity screen; format: cell-based; conditions: Homo sapiens; HCC-2998, single dose 10 μM; read-out: growth inhibition (GI%)
HCT-116 (colon cancer) = assay: NCI-60 SRB cytotoxicity screen; format: cell-based; conditions: Homo sapiens; HCT-116, single dose 10 μM; read-out: growth inhibition (GI%)
HT29 (colon cancer) = assay: NCI-60 SRB cytotoxicity screen; format: cell-based; conditions: Homo sapiens, HT-29; HT29, single dose 10 μM; read-out: growth inhibition (GI%)
KM12 (colon cancer) = assay: NCI-60 SRB cytotoxicity screen; format: cell-based; conditions: Homo sapiens; KM12, single dose 10 μM; read-out: growth inhibition (GI%)
SW-620 (colon cancer) = assay: NCI-60 SRB cytotoxicity screen; format: cell-based; conditions: Homo sapiens; SW-620, single dose 10 μM; read-out: growth inhibition (GI%)
SF-295 (CNS cancer) = assay: NCI-60 SRB cytotoxicity screen; format: cell-based; conditions: Homo sapiens; SF-295, single dose 10 μM; read-out: growth inhibition (GI%)
SNB-75 (CNS cancer) = assay: NCI-60 SRB cytotoxicity screen; format: cell-based; conditions: for inhibition at 10 µM: Homo sapiens, SNB-75, SNB-75, single dose 10 μM, read-out: growth inhibition (GI%)
LOX IMVI (melanoma) = assay: NCI-60 SRB cytotoxicity screen; format: cell-based; conditions: Homo sapiens, single dose 10 μM, read-out: growth inhibition (GI%)
MALME-3M (melanoma) = assay: NCI-60 SRB cytotoxicity screen; format: cell-based; conditions: Homo sapiens, single dose 10 μM, read-out: growth inhibition (GI%)
M14 (melanoma) = assay: NCI-60 SRB cytotoxicity screen; format: cell-based; conditions: Homo sapiens; M14, single dose 10 μM; read-out: growth inhibition (GI%)
SK-MEL-28 (melanoma) = assay: NCI-60 SRB cytotoxicity screen; format: cell-based; conditions: Homo sapiens; SK-MEL-28, single dose 10 μM; read-out: growth inhibition (GI%)
UACC-257 (melanoma) = assay: NCI-60 SRB cytotoxicity screen; format: cell-based; conditions: Homo sapiens; UACC-257, single dose 10 μM; read-out: growth inhibition (GI%)
IGROV1 (ovarian cancer) = assay: NCI-60 SRB cytotoxicity screen; format: cell-based; conditions: Homo sapiens, IGROV-1; IGROV1, single dose 10 μM; read-out: growth inhibition (GI%)
OVCAR-3 (ovarian cancer) = assay: NCI-60 SRB cytotoxicity screen; format: cell-based; conditions: Homo sapiens; OVCAR-3, single dose 10 μM; read-out: growth inhibition (GI%)
[4] = test system: NCI/ADR-RES (ovarian cancer); assay: NCI-60 SRB cytotoxicity screen; format: cell-based; conditions: Homo sapiens, single dose 10 μM, read-out: growth inhibition (GI%)
786-0 (renal cancer) = assay: NCI-60 SRB cytotoxicity screen; format: cell-based; conditions: Homo sapiens; 786-0, single dose 10 μM; read-out: growth inhibition (GI%)
A498 (renal cancer) = assay: NCI-60 SRB cytotoxicity screen; format: cell-based; conditions: Homo sapiens; A498, single dose 10 μM; read-out: growth inhibition (GI%)
CAKI-1 (renal cancer) = assay: NCI-60 SRB cytotoxicity screen; format: cell-based; conditions: Homo sapiens; CAKI-1, single dose 10 μM; read-out: growth inhibition (GI%)
SN12C (renal cancer) = assay: NCI-60 SRB cytotoxicity screen; format: cell-based; conditions: Homo sapiens, single dose 10 μM, read-out: growth inhibition (GI%)
TK-10 (renal cancer) = assay: NCI-60 SRB cytotoxicity screen; format: cell-based; conditions: Homo sapiens; TK-10, single dose 10 μM; read-out: growth inhibition (GI%)
PC-3 (prostate cancer) = assay: NCI-60 SRB cytotoxicity screen; format: cell-based; conditions: PC-3, single dose 10 μM; read-out: growth inhibition (GI%)
DU-145 (prostate cancer) = assay: NCI-60 SRB cytotoxicity screen; format: cell-based; conditions: Homo sapiens; DU-145, single dose 10 μM; read-out: growth inhibition (GI%)
[5] = test system: MDA-MB-231/ATCC (breast cancer); assay: NCI-60 SRB cytotoxicity screen; format: cell-based; conditions: Homo sapiens, MDA-MB-231, read-out: growth inhibition (GI%)

SMILES | inhibition at 10 µM (MOLT-4 (leukemia)) | inhibition at 10 µM (RPMI-8226 (leukemia)) | inhibition at 10 µM (SR (leukemia)) | inhibition at 10 µM [1] | inhibition at 10 µM [2] | inhibition at 10 µM [3] | inhibition at 10 µM (COLO 205 (colon cancer)) | inhibition at 10 µM (HCC-2998 (colon cancer)) | inhibition at 10 µM (HCT-116 (colon cancer)) | inhibition at 10 µM (HT29 (colon cancer)) | inhibition at 10 µM (KM12 (colon cancer)) | inhibition at 10 µM (SW-620 (colon cancer)) | inhibition at 10 µM (SF-295 (CNS cancer)) | inhibition at 10 µM (SNB-75 (CNS cancer)) | inhibition at 10 µM (LOX IMVI (melanoma)) | inhibition at 10 µM (MALME-3M (melanoma)) | inhibition at 10 µM (M14 (melanoma)) | inhibition at 10 µM (SK-MEL-28 (melanoma)) | inhibition at 10 µM (UACC-257 (melanoma)) | inhibition at 10 µM (IGROV1 (ovarian cancer)) | further results
CCc1cccc2cc(-c3cc(-c4ccc(OC)cc4)[nH]c(=O)c3C#N)c(Cl)nc12 [Compound 4a, 4-(2-Chloro-8-ethylquinolin-3-yl)-6-(4-methoxyphenyl)-2-oxo-1,2-dihydropyridine-3-carbonitrile] | 11.9% | < 10% | < 10% | 12.3% | 29.8% | 15.4% | < 10% | < 10% | < 10% | < 10% | < 10% | < 10% | 16.7% | 54.7% | < 10% | < 10% | < 10% | < 10% | < 10% | < 10% | growth inhibition (GI%) (SNB-75 (CNS cancer); SNB-75, single dose 10 μM): 45.69%; inhibition at 10 µM (OVCAR-3 (ovarian cancer)): < 10%; inhibition at 10 µM [4]: < 10%; inhibition at 10 µM (786-0 (renal cancer)): 11.4%; inhibition at 10 µM (A498 (renal cancer)): < 10%; inhibition at 10 µM (CAKI-1 (renal cancer)): 34.9%; inhibition at 10 µM (SN12C (renal cancer)): < 10%; inhibition at 10 µM (TK-10 (renal cancer)): < 10%; inhibition at 10 µM (PC-3 (prostate cancer)): < 10%; inhibition at 10 µM (DU-145 (prostate cancer)): < 10%; inhibition at 10 µM [5]: 10%; melting point: 270 to 272 °C
CCc1cccc2cc(C=CC(=O)c3ccc(OC)cc3)c(Cl)nc12 [Compound 3a, 3-(2-Chloro-8-ethylquinolin-3-yl)-1-(4-methoxyphenyl)prop-2-en-1-one] | 16.8% | 22.1% | 38.4% | < 10% | 27.3% | 79.9% | < 10% | < 10% | < 10% | < 10% | < 10% | < 10% | < 10% | < 10% | 11.3% | < 10% | < 10% | < 10% | < 10% | < 10% | inhibition at 10 µM (OVCAR-3 (ovarian cancer)): < 10%; inhibition at 10 µM [4]: < 10%; inhibition at 10 µM (786-0 (renal cancer)): < 10%; inhibition at 10 µM (A498 (renal cancer)): < 10%; inhibition at 10 µM (CAKI-1 (renal cancer)): 19.3%; inhibition at 10 µM (SN12C (renal cancer)): < 10%; inhibition at 10 µM (TK-10 (renal cancer)): < 10%; inhibition at 10 µM (PC-3 (prostate cancer)): < 10%; inhibition at 10 µM (DU-145 (prostate cancer)): < 10%; inhibition at 10 µM [5]: < 10%; melting point: 138 to 140 °C
